We go through seven compounds from PMC10498151 (RSC Advances, 2023).

≈ marks a conversion by molar mass, not a printed value. Where two headings read alike, the source gives them in different places.

Series [1] deals with Parvimonas micra (ATCC 3870). Briefly: microbe, parasite or virus in culture. In kind it is cell-based.
The test system of series [2] is Prevotella intermedia/nigres-cens (ATCC 25611). Nature of the series: microbe, parasite or virus in culture. In kind it is cell-based, Prevotella intermedia/nigrescens. Particulars: ATCC25611.
For a further series, the system named is Finegoldia magna (CI). Nature of the series: microbe, parasite or virus in culture. In kind it is cell-based.
The test system of series [3] is Porphyromonas gingivalis (ATCC 33277). Nature of the series: microbe, parasite or virus in culture. In kind it is cell-based.
The next series has as its system Fusobacterium mortiferum. Briefly: microbe, parasite or virus in culture. In kind it is cell-based.
Series [4] concerns Eggerthella lenta (ATCC 43055). Briefly: microbe, parasite or virus in culture. In kind it is cell-based. Particulars: ATCC43055.
The test system of series [5] is Porphyromonas asaccharolytica (CI). Briefly: microbe, parasite or virus in culture. In kind it is cell-based.
For the next series, the system named is Cutibacterium acnes. Briefly: microbe, parasite or virus in culture. In kind it is cell-based.
Another series concerns C. difficile. The following applies: C. difficile infection, review ref 25; cited from earlier work.
A further series deals with Porphyromonas sp. (CI). Briefly: microbe, parasite or virus in culture. In kind it is cell-based.
The test system of series [6] is Bacteroides thetaiotaomicron (ATCC 29148). Nature of the series: microbe, parasite or virus in culture. In kind it is cell-based. The following applies: ATCC29148.
Series [7] relates to Bacteroides ovatus (ATCC 84834). Nature of the series: microbe, parasite or virus in culture. In kind it is cell-based. The following applies: ATCC84834.
A further series has as its system Fusobacterium nucleatum. Briefly: microbe, parasite or virus in culture. In kind it is cell-based.
For a further series, the system named is Bacteroides fragilis. Briefly: microbe, parasite or virus in culture. In kind it is cell-based.
In a further series the test system is Clostridium difficile. Nature of the series: microbe, parasite or virus in culture. In kind it is cell-based.
The subject of series [8] is Peptostreptococcus anaerobius (CI). Nature of the series: microbe, parasite or virus in culture. In kind it is cell-based.
The subject of series [9] is Clostridium sporogenes (ATCC 3584). Briefly: microbe, parasite or virus in culture. Particulars: ATCC3584. In kind it is cell-based.
Series [10] has as its system Clostridium butyricum (CI). Briefly: microbe, parasite or virus in culture. In kind it is cell-based.
For series [11] the following is noted: determined in PBS buffer ref 47; cited from earlier work.
Another series deals with Prevotella spp. In kind it is cell-based.
The next series relates to Clostridium perfringens. In kind it is cell-based.
The subject of series [12] is Other Bacteroides spp. and Parabacteroides. In kind it is cell-based, Bacteroides spp. and Parabacteroides distasonis.
Series [13] concerns Actinomyces odontolyticus (CI). In kind it is cell-based.
For series [14], the system named is Clostridium sordellii (CI). In kind it is cell-based.
For series [15] the following is noted: cited from earlier work.
Setting [16] is: Porphyromonas gingivalis, ATCC33277.
Setting [17] is: Fusobacterium nucleatum, ATCC25586.
Setting [18] is: Bacteroides fragilis, ATCC25285.
[19] abbreviates: Clostridioides difficile, ATCC43255.

As to `Cc1ncc([N+](=O)[O-])n1CCO` [Mtz, metronidazole, reference compound], the MIC in [1] (Parvimonas micra, ATCC3870) is 0.125 µg/mL (≈ 0.73 µM); in series [2], 1 µg/mL (≈ 5.84 µM); in the series with Finegoldia magna (CI) (Finegoldia magna), 0.125 µg/mL (≈ 0.73 µM); in series [3] (setting [16]), at most 0.06 µg/mL; in the series on Fusobacterium mortiferum, 0.25 µg/mL (≈ 1.46 µM); in series [4], 0.25 µg/mL (≈ 1.46 µM). Also, the MIC was 0.25 µg/mL (≈ 1.46 µM) in series [5]; over 64 µg/mL in the series on Cutibacterium acnes; 0.125 µg/mL (≈ 0.73 µM) in the series with Porphyromonas sp. (CI) (Porphyromonas); 1 µg/mL (≈ 5.84 µM) in series [6]; 1 µg/mL (≈ 5.84 µM) in series [7]; 0.125 µg/mL (≈ 0.73 µM) in the series on Fusobacterium nucleatum (setting [17]). The MIC is 0.25 µg/mL (≈ 1.46 µM) against Bacteroides fragilis (setting [18]); 0.25 µg/mL (≈ 1.46 µM) against Clostridium difficile (setting [19]); 0.125 µg/mL (≈ 0.73 µM) in series [8]; 0.25 µg/mL (≈ 1.46 µM) in [9]; at most 0.06 µg/mL in series [10]. The recurrence after treatment in the series with C. difficile is reported as 27.1%. Also, the treatment failure with C. difficile is reported as 22.4%.
Regarding `[O-][N+]1=C(c2ccc(Cl)cc2)C2=NCCN2c2ccccc21` [1j, 4-(4-Chlorophenyl)-1,2-dihydroimidazo[1,2-a]quinoxaline 5-oxide], the MIC in [1] (Parvimonas micra, ATCC3870) was at most 0.06 µg/mL; in series [2], at most 0.06 µg/mL; in the series with Finegoldia magna (CI) (Finegoldia magna), 0.25 µg/mL (≈ 0.84 µM); in series [3] (setting [16]), at most 0.06 µg/mL; in [4], at most 0.06 µg/mL; in series [5], at most 0.06 µg/mL. In addition, the MIC was at most 0.06 µg/mL in the series with Porphyromonas sp. (CI) (Porphyromonas); 0.125 µg/mL (≈ 0.42 µM) in series [6]; 0.125 µg/mL (≈ 0.42 µM) in series [7]; at most 0.06 µg/mL with Fusobacterium nucleatum (setting [17]); 0.125 µg/mL (≈ 0.42 µM) in the series with Bacteroides fragilis (setting [18]); 0.25 µg/mL (≈ 0.84 µM) against Clostridium difficile (setting [19]). The values for the MIC in series [8], in [9] and in series [10] were 0.25 µg/mL (≈ 0.84 µM), 0.25 µg/mL (≈ 0.84 µM) and at most 0.06 µg/mL, respectively. For the same compound, in [11], the “logP: experimental log of the octanol/water partition coefficient” value is reported as 1.292. The “Selectivity index (>100 μg mL^−1/MIC90)” value in the series on Prevotella spp. is recorded as over 1667; in the series with Clostridium perfringens, over 100; in the series on Fusobacterium nucleatum it was over 800; with Bacteroides fragilis, over 800; in series [12], over 800.
With “5-phenyl-2,3-dihydropyrimidoquinoxaline N-oxide [1a]”, the MIC was 0.125 µg/mL in series [1]; 2 µg/mL with Finegoldia magna (CI); at most 0.06 µg/mL in [3]; 0.125 µg/mL in the series with Porphyromonas sp. (CI); 0.125 µg/mL against Fusobacterium nucleatum; 32 µg/mL in series [13]. Besides, the MIC against Bacteroides fragilis worked out at 1 µg/mL; in series [14], 16 µg/mL; in the series with Clostridium difficile, 4 µg/mL. The “logP: experimental log of the octanol/water partition coefficient” value in series [11] is −0.149. Further, the “Selectivity index (>100 μg mL^−1/MIC90)” value with Prevotella spp. is over 100; in the series on Clostridium perfringens it was over 6; with Fusobacterium nucleatum, over 100; with Bacteroides fragilis it was over 100; with Clostridium difficile it was over 25; in [12] it was over 100. In addition, the Cell viability in the series with RAW 264.7 cells came to 98%.
Regarding `O=[N+]([O-])c1ccc(C2=[N+]([O-])c3ccccc3N3CCN=C23)cc1` [1k, 4-(4-Nitrophenyl)-1,2-dihydroimidazo[1,2-a]quinoxaline 5-oxide], the MIC in series [1] (Parvimonas micra, ATCC3870) was at most 0.06 µg/mL; in series [2], at most 0.06 µg/mL; in the series with Finegoldia magna (CI) (Finegoldia magna), 1 µg/mL (≈ 3.24 µM); in [4], at most 0.06 µg/mL; in series [5] it was at most 0.06 µg/mL; with Cutibacterium acnes, 32 µg/mL (≈ 104 µM). For the same compound, the MIC (against Porphyromonas sp. (CI) (Porphyromonas); in series [6]; in series [7]; with Fusobacterium nucleatum (setting [17]); against Bacteroides fragilis (setting [18]); against Clostridium difficile (setting [19])) was at most 0.06 µg/mL in each case. Moreover, the MIC in series [8], in series [9] and in series [10] was at most 0.06 µg/mL each time. Also, the “Selectivity index (>100 μg mL^−1/MIC90)” value in the series with Prevotella spp. is on record as over 1667; in the series with Clostridium perfringens, over 800; with Fusobacterium nucleatum it was over 1667; with Bacteroides fragilis, over 1667; in the series with Clostridium difficile, over 1667; in [12] it was over 1667. Moreover, in the series with RAW 264.7 cells, the “Selectivity index (IS)” value is over 800.
`CN[C@H](CC(C)C)C(=O)N[C@H]1C(=O)N[C@@H](CC(N)=O)C(=O)N[C@H]2C(=O)N[C@H]3C(=O)N[C@H](C(=O)N[C@H](C(=O)O)c4cc(O)cc(O)c4-c4cc3ccc4O)[C@H](O)c3ccc(c(Cl)c3)Oc3cc2cc(c3O[C@@H]2O[C@H](CO)[C@@H](O)[C@H](O)[C@H]2O[C@H]2C[C@](C)(N)[C@H](O)[C@H](C)O2)Oc2ccc(cc2Cl)[C@H]1O` [vancomycin]: in the series with C. difficile, the recurrence after treatment is given as 24.0% and the treatment failure is reported as 14.2%.
Regarding `O=[N+]([O-])c1ccc(C2=NCCN2c2ccccc2)cc1` [its imidazoline homologue], in series [15], the pKa (in general, the pH at which an ionisable group is half protonated) is on record as 7.65.
In the case of `O=[N+]([O-])c1ccc(C2=NCCCN2c2ccccc2)cc1` [1-phenyl-2-4-nitrophenyl-1,4,5,6-tetrahydropyrimidine], the pKa in series [15] is 10.51.
